Each block holds one molecule with its values, some of them ahead of it.
How the values were obtained:
[1] = Excitation and fluorescence wavelength by FL4500 fluorescence spectrophotometer; conditions: for λem / λex: 10 mg/mL DMSO solution diluted 500-fold with distilled water
[2] = system: central nervous system tissues of juvenile zebrafish (7 dpf); test: Labeling the central nervous system tissue of live 7 dpf juvenile zebrafish by immersion in labeling solution
Method: Subsequently, the labeling solution 1 in the well was removed and replaced by 1 mL of distilled water. This operation was repeated three times. Then, juvenile zebrafish was removed from the well and embedded in 5% low melting point agarose gel on a slide glass so as to restrict movement, and the state of labeling in the central nervous system tissues were observed from the lateral side of zebrafish by a fluorescence stereomicroscope (manufactured by Leica Microsystems, MZ16FA). Also, the brain nerve tissues were observed from the parietal region by a confocal microscope (manufactured by Carl Zeiss, Inc., Pascal Exciter).

[3] = system: mouse brain tissue section; test: Labeling of a mouse brain tissue section, confocal microscope; conditions: 3-month-old B10 mouse, 10 μm frozen section, 1 ug/mL in PBS, incubation one hour
Method: (§1) A 3-month-old B10 mouse was sacrificed by diethyl ether anesthesia, and the brain is collected. The brain thus removed is embedded in an OCT compound, and then frozen in isopentane cooled with liquid nitrogen. The resulting brain was sliced into thin sections of approximately 10 μm in thickness in a cryostat cooled to −20° C. The thin sections were then placed on a slide glass and dried, whereby a section of the brain tissue was prepared. To the section of […] tissue thus prepared, a 1 ug/mL solution of the compound (13) in PBS was added, followed by incubation for one hour. After one hour, the slide glass was washed with PBST (PBS containing 0.2% Triton-X100) three times, and then sealed with a cover glass. Upon observation of the slide glass by a confocal microscope (manufactured by Carl Zeiss, Inc., Pascal
as §1, with “(27)” for “(13)”, “After one hour, the slide glass was washed with PBST (PBS containing 0.2% Triton-X100) three times, and then sealed with a cover glass. Upon observation of the slide glass by a confocal microscope (manufactured by Carl Zeiss, Inc., Pascal” left out

mouse brain = test: Labeling of mouse brain after intraperitoneal administration; assay type: in vivo; conditions: 3-month-old B10 mouse, 0.2 ml single intraperitoneal dose, brain collected after one hour
Method: The compound (13) is added to an equimolar solution of NaOH so that a concentration of 10 mg/ml is reached, and the resulting mixture is centrifuged at 14 krpm for five minutes to obtain a supernatant. Then, 0.2 ml of the supernatant thus obtained is intraperitoneally administered to a 3-month-old B10 mouse in a single dose. After one hour, the animal thus treated is sacrificed by diethyl ether anesthesia, and the brain is collected. The brain thus removed is embedded in an OCT compound, and then frozen in isopentane cooled with liquid nitrogen. The resulting brain was sliced into thin sections of approximately 10 μm in thickness in a cryostat cooled to −20° C. The thin sections were then placed on a slide glass and dried, whereby a section of the brain tissue was prepared. The brain tissue section thus prepared was observed under a confocal microscope (manufactured by Carl Zeiss, Inc., Pascal Exciter).
After one hour, the animal thus treated is sacrificed by diethyl ether anesthesia, and the brain is collected. The brain thus removed is embedded in an OCT compound, and then frozen in isopentane cooled with liquid nitrogen. The resulting brain was sliced into thin sections of approximately 10 μm in thickness in a cryostat cooled to −20° C. The thin sections were then placed on a slide glass and dried, whereby a section of the brain tissue was prepared. […]

[4] = system: brain of juvenile zebrafish; conditions: according to Patent Literature 3; cited from earlier work
[5] = 7 dpf juvenile zebrafish, labeling solution 1 μg/mL, one hour
[6] = aqueous solution, 10 mg/mL DMSO solution diluted 500-fold with distilled water (Table 2)
[7] = juvenile zebrafish, labeling solution 1 μg/mL, one hour (Table 2)
[8] = 5 μM chloroform solution (Examples 30 to 34)
[9] = 7 dpf juvenile zebrafish, labeling solution 1 μg/mL, one hour (Table 3)
[10] = 5 ηM DMSO solution (Examples 35 to 46)

λem ([1]; aqueous solution): 577 | λex ([1]; aqueous solution): 556
Molecule: CCN(CC)c1ccc2cc3c(oc2c1)c(C#N)c(=N)n1c2ccccc2nc31 [(10)]
Labeling property [2, 5]: ++

λem ([1]; aqueous solution): 576 | λex ([1]; aqueous solution): 555
Molecule: CCN(CC)c1ccc2cc3c(oc2c1)c(C#N)c(=O)n1c2ccccc2nc31 [(11)]
Labeling property [2, 5]: +

Excitation wavelength λex [1, 6]: 469 | Fluorescence wavelength λem [1, 6]: 555 | Stokes shift λem − λex [1, 6]: 86
Molecule: CCN(CC)c1ccc2cc(-c3nc4ccccc4s3)c(=O)oc2c1 [Compound 15]
Fluorescence sensitivity [2, 7]: ++ | Labeling property [2, 7]: ++

Excitation wavelength λex [1, 6]: 380 | Fluorescence wavelength λem [1, 6]: 470 | Stokes shift λem − λex [1, 6]: 90
Molecule: COc1ccc2cc(-c3nc4ccccc4[nH]3)c(=N)oc2c1 [Compound 16]
Fluorescence sensitivity [2, 7]: + | Labeling property [2, 7]: +

Excitation wavelength λex [1, 6]: 410 | Fluorescence wavelength λem [1, 6]: 490 | Stokes shift λem − λex [1, 6]: 80
Molecule: N=c1oc2ccc3ccccc3c2cc1-c1nc2ccccc2[nH]1 [Compound 17]
Fluorescence sensitivity [2, 7]: + | Labeling property [2, 7]: +

Excitation wavelength λex [1, 6]: 464 | Fluorescence wavelength λem [1, 6]: 514 | Stokes shift λem − λex [1, 6]: 50
Molecule: CCN(CC)c1ccc2cc(-c3nc4ccccc4[nH]3)c(=N)oc2c1 [Compound 18]
Fluorescence sensitivity [2, 7]: ++ | Labeling property [2, 7]: ++

Excitation wavelength λex [1, 6]: 380 | Fluorescence wavelength λem [1, 6]: 470 | Stokes shift λem − λex [1, 6]: 90
Molecule: COc1ccc2cc(-c3nc4ccccc4[nH]3)c(=O)oc2c1 [Compound 20]
Fluorescence sensitivity [2, 7]: + | Labeling property [2, 7]: +

Excitation wavelength λex [1, 6]: 360 | Fluorescence wavelength λem [1, 6]: 510 | Stokes shift λem − λex [1, 6]: 150
Molecule: COc1cccc2cc(-c3nc4ccccc4[nH]3)c(=O)oc12 [Compound 22]
Fluorescence sensitivity [2, 7]: + | Labeling property [2, 7]: +

Excitation wavelength λex [1, 6]: 422 | Fluorescence wavelength λem [1, 6]: 476 | Stokes shift λem − λex [1, 6]: 54
Molecule: CCN(CC)c1ccc2cc(-c3nc4cc(Cl)ccc4o3)c(=O)oc2c1 [Compound 23]
Fluorescence sensitivity [2, 7]: + | Labeling property [2, 7]: ++

Excitation wavelength λex [1, 6]: 380 | Fluorescence wavelength λem [1, 6]: 490 | Stokes shift λem − λex [1, 6]: 110
Molecule: Cc1ccc2oc(=O)c(-c3nc4ccccc4[nH]3)cc2c1 [Compound 24]
Fluorescence sensitivity [2, 7]: + | Labeling property [2, 7]: +

Excitation wavelength λex [1, 6]: 463 | Fluorescence wavelength λem [1, 6]: 509 | Stokes shift λem − λex [1, 6]: 46
Molecule: CCCN(CCC)c1ccc2cc(-c3nc4ccccc4[nH]3)c(=O)oc2c1 [Compound 25]
Fluorescence sensitivity [2, 7]: ++ | Labeling property [2, 7]: ++

Excitation wavelength λex [1, 6]: 472 | Fluorescence wavelength λem [1, 6]: 504 | Stokes shift λem − λex [1, 6]: 32
Molecule: CCN(CC)c1ccc2cc(-c3nc4ccc(C)cc4o3)c(=O)oc2c1 [Compound 27]
Fluorescence sensitivity [2, 7]: ++ | Labeling property [2, 7]: ++ | Labeling property in a mouse brain tissue section [3]: confirmed to exert a labeling property

Excitation wavelength λex [1, 6]: 410 | Fluorescence wavelength λem [1, 6]: 540 | Stokes shift λem − λex [1, 6]: 130
Molecule: O=c1oc2ccc3ccccc3c2cc1-c1nc2ccccc2[nH]1 [Compound 28]
Fluorescence sensitivity [2, 7]: + | Labeling property [2, 7]: +

More lines, now with the values behind:

Molecule: Cn1c(=O)cc2c3c(c(NC4CCCCC4)ccc31)C(=O)c1ccccc1-2 [(8)]
λem ([1]; aqueous solution): 619 | λex ([1]; aqueous solution): 599 | Labeling property [2, 5]: ++ | State of labeling of optic nerve, optic tract, superior colliculus (optic tectum), pituitary gland, tectospinal (tectobulbar) tract and reticular formation ([2]; 7 dpf juvenile zebrafish, one hour, fluorescence stereomicroscope and confocal microscope): intensely labeled

Molecule: Cn1c(=O)cc2c3c(c(NCc4ccccc4)ccc31)C(=O)c1ccccc1-2 [(9)]
λem ([1]; aqueous solution): 556 | λex ([1]; aqueous solution): 480 | Labeling property [2, 5]: ++

Molecule: CCCCNc1ccc2c3c(cccc13)C(=O)N(CCCC)C2=O [(12)]
λem ([1]; aqueous solution): 551 | λex ([1]; aqueous solution): 466 | Labeling property [2, 5]: ++

Molecule: CCN1c2ccc(/C=C3/SC(=S)N(CCC(=O)O)C3=O)cc2C2CCCC21 (stereo not drawn) [(13)]
λem ([1]; aqueous solution): 604 | λex ([1]; aqueous solution): 576 | Labeling property [2, 5]: ++ | Labeling property in a mouse brain tissue section [3]: confirmed to exert a labeling property | Labeling property in a mouse brain by intraperitoneal administration (mouse brain): confirmed to exert a labeling property

Molecule: CCN1C(=S)N(c2ccccc2)C(=O)/C1=C/C=C1/Sc2ccccc2N1CC [(14)]
λem ([1]; aqueous solution): 560 | λex ([1]; aqueous solution): 530 | Labeling property [2, 5]: ++

Molecule: O=C1c2ccccc2-c2cc(=O)n(C3CCCCC3)c3ccc(NC4CCCCC4)c1c23 [Compound 29]
Excitation wavelength λex [1, 8]: 547 | Fluorescence wavelength λem [1, 8]: 592 | Fluorescence sensitivity [2, 9]: +

Molecule: CCCCn1c(=O)cc2c3c(c(NC4CCCCC4)ccc31)C(=O)c1ccccc1-2 [Compound 30]
Excitation wavelength λex [1, 8]: 548 | Fluorescence wavelength λem [1, 8]: 575 | Fluorescence sensitivity [2, 9]: +

Molecule: CCCCC(CC)CNc1ccc2c3c(cc(=O)n2CCCC)-c2ccccc2C(=O)c13 (stereo not drawn) [Compound 31]
Excitation wavelength λex [1, 8]: 547 | Fluorescence wavelength λem [1, 8]: 574 | Fluorescence sensitivity [2, 9]: +

Molecule: CCCCn1c(=O)cc2c3c(c(NCCC4=CCCCC4)ccc31)C(=O)c1ccccc1-2 [Compound 32]
Excitation wavelength λex [1, 8]: 544 | Fluorescence wavelength λem [1, 8]: 573 | Fluorescence sensitivity [2, 9]: +

Molecule: CCCCOCCCNc1ccc2c3c(cc(=O)n2CCCC)-c2ccccc2C(=O)c13 [Compound 33]
Excitation wavelength λex [1, 8]: 544 | Fluorescence wavelength λem [1, 8]: 573 | Fluorescence sensitivity [2, 9]: +

Molecule: O=C(O)CCN1C(=O)/C(=C\c2cc(Br)c3c(c2)C2CCCC2N3c2ccc(Br)cc2)SC1=S (stereo not drawn) [Compound 34]
Excitation wavelength λex [1, 10]: 474 | Fluorescence wavelength λem [1, 10]: 590 | Fluorescence sensitivity [2, 9]: +

Molecule: COc1ccc(N2c3ccc(/C=C4/SC(=S)N(CCC(=O)O)C4=O)cc3C3CCCC32)cc1 (stereo not drawn) [Compound 35]
Excitation wavelength λex [1, 10]: 521 | Fluorescence wavelength λem [1, 10]: 634 | Fluorescence sensitivity [2, 9]: ++

Molecule: O=C(O)CCN1C(=O)/C(=C\c2ccc3c(c2)C2CCCC2N3Cc2ccccc2)SC1=S (stereo not drawn) [Compound 36]
Excitation wavelength λex [1, 10]: 510 | Fluorescence wavelength λem [1, 10]: 584 | Fluorescence sensitivity [2, 9]: +

Molecule: O=C(O)CCN1C(=O)/C(=C\c2ccc3c(c2)C2CCCC2N3c2ccccc2)SC1=S (stereo not drawn) [Compound 37]
Excitation wavelength λex [1, 10]: 502 | Fluorescence wavelength λem [1, 10]: 604 | Fluorescence sensitivity [2, 9]: ++

Molecule: COc1ccc2cc(N3c4ccc(/C=C5/SC(=S)N(CCC(=O)O)C5=O)cc4C4CCCC43)ccc2c1 (stereo not drawn) [Compound 38]
Excitation wavelength λex [1, 10]: 521 | Fluorescence wavelength λem [1, 10]: 646 | Fluorescence sensitivity [2, 9]: +

Molecule: CN1c2ccc(/C=C3/SC(=S)N(CCC(=O)O)C3=O)cc2C2CCCC21 (stereo not drawn) [Compound 39]
Excitation wavelength λex [1, 10]: 517 | Fluorescence wavelength λem [1, 10]: 590 | Fluorescence sensitivity [2, 9]: ++

Molecule: CCN1c2ccc(/C=C3/SC(=S)N(CCC(=O)O)C3=O)cc2CC1C (stereo not drawn) [Compound 40]
Excitation wavelength λex [1, 10]: 509 | Fluorescence wavelength λem [1, 10]: 593 | Fluorescence sensitivity [2, 9]: ++

Molecule: CCn1c2ccccc2c2cc(/C=C3/SC(=S)N(CCC(=O)O)C3=O)ccc21 [Compound 41]
Excitation wavelength λex [1, 10]: 452 | Fluorescence wavelength λem [1, 10]: 540 | Fluorescence sensitivity [2, 9]: +

Molecule: CCCN1c2ccc(/C=C3/SC(=S)N(CCC(=O)O)C3=O)cc2C2CCCC21 (stereo not drawn) [Compound 42]
Excitation wavelength λex [1, 10]: 519 | Fluorescence wavelength λem [1, 10]: 592 | Fluorescence sensitivity [2, 9]: ++

Molecule: CCN1c2ccc(/C=C/C=C3/SC(=S)N(CCC(=O)O)C3=O)cc2C2CCCC21 (stereo not drawn) [Compound 43]
Excitation wavelength λex [1, 10]: 564 | Fluorescence wavelength λem [1, 10]: 671 | Fluorescence sensitivity [2, 9]: ++

Molecule: CSc1ccc(N2c3ccc(/C=C4/SC(=S)N(CCC(=O)O)C4=O)cc3C3CCCC32)cc1 (stereo not drawn) [Compound 44]
Excitation wavelength λex [1, 10]: 518 | Fluorescence wavelength λem [1, 10]: 647 | Fluorescence sensitivity [2, 9]: ++

Molecule: CCN1CCc2cc(/C=C3/SC(=S)N(CCC(=O)O)C3=O)ccc21 [Compound 45]
Excitation wavelength λex [1, 10]: 510 | Fluorescence wavelength λem [1, 10]: 597 | Fluorescence sensitivity ([2]; 7 dpf juvenile zebrafish, labeling solution 45 with 3 μg/mL dye compound, one hour (Table 3)): +

Molecule: Cc1cc(-c2ccc(/N=N/c3ccc4c(S(=O)(=O)O)cc(S(=O)(=O)O)c(N)c4c3O)c(C)c2)ccc1/N=N/c1ccc2c(S(=O)(=O)O)cc(S(=O)(=O)O)c(N)c2c1O [Evans blue]
Migration of administered dye into the brain confirmed up to [4]: up to 4 dpf

Molecule: O=C1OC2(c3ccc(O)cc3Oc3cc(O)ccc32)c2ccccc21 [Fluorescein, reference compound]
Labeling property [2, 5]: − | Migration of administered dye into the brain confirmed up to [4]: ≤ 8 dpf

Molecule: rhodamine 123
Migration of administered dye into the brain confirmed up to [4]: ≤ 5 dpf
